Measurements from US6737383B1, “Herbicidal oxadiazolidines” (priority 1999, dated 2004).

Legend:
crabgrass = assay: Test B pre/postemergence crabgrass; format: in vivo, Digitaria sanguinalis
How it was run: (§1)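 Test chemicals in a non-phytotoxic solvent mixture with surfactant were sprayed preemergence onto planted seeds and postemergence onto plants 2 to 18 cm tall (1- to 4-leaf stage). After twelve to sixteen days in a greenhouse, injury was visually rated against untreated controls from 0 (no effect) to 10 (complete control).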

blackgrass = assay: Test B pre/postemergence blackgrass; format: in vivo, Alopecurus myosuroides
How it was run: as §1

sugar beet = assay: Test B pre/postemergence sugar beet; format: in vivo, Beta vulgaris
How it was run: as §1

purple nutsedge = assay: Test B pre/postemergence purple nutsedge; format: in vivo, Cyperus rotundus
How it was run: as §1

rice = assay: Test B flood test rice; format: in vivo, Oryza sativa
How it was run: (§2)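 Plants were grown to the 2-leaf stage before treatment with test chemical, then held in a greenhouse for twelve to sixteen days. Injury was visually rated against untreated controls on a 0–10 scale, where 0 is no effect and 10 is complete control.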

wild oat = assay: Test B pre/postemergence wild oat; format: in vivo, Avena fatua
How it was run: as §1

velvetleaf = assay: Test B pre/postemergence velvetleaf; format: in vivo, Abutilon theophrasti
How it was run: as §1

wheat = assay: Test B pre/postemergence wheat; format: in vivo, Triticum aestivum
How it was run: as §1

duck salad = assay: Test B flood test duck salad; format: in vivo, Heteranthera limosa
How it was run: as §2

rape = assay: Test B pre/postemergence rape; format: in vivo, Brassica napus
How it was run: as §1

bamyardgrass = assay: Test B flood test barnyardgrass; format: in vivo, Echinochloa crus-galli
How it was run: as §2

bedstraw = assay: Test B pre/postemergence bedstraw; format: in vivo, Galium aparine
How it was run: as §1

corn = assay: Test B pre/postemergence corn; format: in vivo, Zea mays
How it was run: as §1

surinam grass = assay: Test B pre/postemergence surinam grass; format: in vivo, Brachiaria decumbens
How it was run: as §1

smallflower flatsedge = assay: Test B flood test smallflower flatsedge; format: in vivo, Cyperus difformis
How it was run: as §2

giant foxtail = assay: Test B pre/postemergence giant foxtail; format: in vivo, Setaria faberii
How it was run: as §1

[1] = Postemergence, Rate 62 g/ha, scale 0 to 10, 0 is no effect, 10 is complete control
[2] = Postemergence, Rate 250 g/ha, scale 0 to 10, 0 no effect, 10 complete control
[3] = Preemergence, Rate 62 g/ha, scale 0 to 10, 0 is no effect, 10 is complete control
[4] = Preemergence, Rate 125 g/ha, scale 0 to 10 (0 no effect, 10 complete control)
[5] = Preemergence, Rate 250 g/ha, scale of 0 to 10 where 0 is no effect and 10 is complete control
[6] = Preemergence, Rate 500 g/ha, scale 0 (no effect) to 10 (complete control)
[7] = Rate 125 g/ha, Postemergence, scale 0 to 10, 0 no effect, 10 complete control
[8] = Rate 500 g/ha, Postemergence, 0 to 10 scale (0 no effect, 10 complete control)
[9] = Rate 125 g/ha, Postemergence section (flood test species), scale 0 to 10, 0 no effect, 10 complete control
[10] = Rate 500 g/ha, Postemergence section of Table B, 0 to 10 scale (0 no effect, 10 complete control)
[11] = flood test, listed under Postemergence, Rate 250 g/ha, scale 0 to 10, 0 no effect, 10 complete control

For `Cc1ccc(-n2c(=O)on(C(=O)N(c3ccc(F)cc3F)C(C)C)c2=O)c(C)c1` [Compound 24], the “Crabgrass plant response rating” value (crabgrass; [1]) was 2, the “Crabgrass plant response rating” value (crabgrass; [2]) was 9 and the “Plant response rating, Crabgrass” value (crabgrass; [3]) was 0. For the same molecule, the “Plant response rating, Crabgrass” value (crabgrass; [4]) was 6, the “Plant response rating, Crabgrass” value (crabgrass; [5]) was 9 and the “Crabgrass plant response rating” value (crabgrass; [6]) was 10. For the same molecule, the “Crabgrass plant response rating” value (crabgrass; [7]) was 8, the “Crabgrass plant response rating” value (crabgrass; [8]) was 10 and the “Blackgrass plant response rating” value (blackgrass; [1]) was 0. The “Blackgrass plant response rating” value (blackgrass; [2]) was 3, the “Plant response rating, Blackgrass” value (blackgrass; [3]) was 0 and the “Plant response rating, Blackgrass” value (blackgrass; [4]) was 1. The “Plant response rating, Blackgrass” value (blackgrass; [5]) was 4, the “Blackgrass plant response rating” value (blackgrass; [6]) was 4 and the “Blackgrass plant response rating” value (blackgrass; [7]) was 1. For the same molecule, the “Blackgrass plant response rating” value (blackgrass; [8]) was 6, the “Sugarbeets plant response rating” value (sugar beet; [1]) was 0 and the “Sugarbeets plant response rating” value (sugar beet; [2]) was 0. For the same molecule, the “Plant response rating, Sugarbeets” value (sugar beet; [3]) was 0, the “Plant response rating, Sugarbeets” value (sugar beet; [4]) was 3 and the “Plant response rating, Sugarbeets” value (sugar beet; [5]) was 4. The “Sugarbeets plant response rating” value (sugar beet; [6]) was 9, the “Sugarbeets plant response rating” value (sugar beet; [7]) was 0 and the “Nutsedge plant response rating” value (purple nutsedge; [1]) was 0. The “Nutsedge plant response rating” value (purple nutsedge; [2]) was 0, the “Plant response rating, Nutsedge” value (purple nutsedge; [3]) was 0 and the “Plant response rating, Nutsedge” value (purple nutsedge; [4]) was 0. For the same molecule, the “Plant response rating, Nutsedge” value (purple nutsedge; [5]) was 0, the “Nutsedge plant response rating” value (purple nutsedge; [6]) was 0 and the “Nutsedge plant response rating” value (purple nutsedge; [7]) was 0. The “Nutsedge plant response rating” value (purple nutsedge; [8]) was 0, the “Rice plant response rating” value (rice; [1]) was 0 and the “Rice plant response rating” value (rice; [9]) was 0. The “Rice plant response rating” value (rice; [10]) was 0, the “Rice plant response rating” value (rice; [11]) was 0 and the “Wild oats plant response rating” value (wild oat; [1]) was 0. The “Wild oats plant response rating” value (wild oat; [2]) was 0, the “Plant response rating, Wild oats” value (wild oat; [4]) was 0 and the “Plant response rating, Wild oats” value (wild oat; [5]) was 0. For the same molecule, the “Wild oats plant response rating” value (wild oat; [6]) was 2, the “Wild oats plant response rating” value (wild oat; [7]) was 0 and the “Velvetleaf plant response rating” value (velvetleaf; [1]) was 0. The “Velvetleaf plant response rating” value (velvetleaf; [2]) was 0, the “Plant response rating, Velvetleaf” value (velvetleaf; [3]) was 0 and the “Plant response rating, Velvetleaf” value (velvetleaf; [4]) was 0. The “Plant response rating, Velvetleaf” value (velvetleaf; [5]) was 0, the “Velvetleaf plant response rating” value (velvetleaf; [6]) was 0 and the “Velvetleaf plant response rating” value (velvetleaf; [7]) was 0. For the same molecule, the “Wheat plant response rating” value (wheat; [1]) was 0, the “Wheat plant response rating” value (wheat; [2]) was 0 and the “Plant response rating, Wheat” value (wheat; [3]) was 0. For the same molecule, the “Plant response rating, Wheat” value (wheat; [4]) was 0, the “Plant response rating, Wheat” value (wheat; [5]) was 0 and the “Wheat plant response rating” value (wheat; [6]) was 0. The “Wheat plant response rating” value (wheat; [7]) was 0, the “Ducksalad plant response rating” value (duck salad; [1]) was 0 and the “Ducksalad plant response rating” value (duck salad; [9]) was 0. For the same molecule, the “Ducksalad plant response rating” value (duck salad; [10]) was 0, the “Ducksalad plant response rating” value (duck salad; [11]) was 0 and the “Rape plant response rating” value (rape; [1]) was 0. The “Rape plant response rating” value (rape; [2]) was 0, the “Plant response rating, Rape” value (rape; [3]) was 0 and the “Plant response rating, Rape” value (rape; [4]) was 0. The “Plant response rating, Rape” value (rape; [5]) was 0, the “Rape plant response rating” value (rape; [6]) was 1 and the “Rape plant response rating” value (rape; [7]) was 0. For the same molecule, the “Rape plant response rating” value (rape; [8]) was 2, the “Barnyardgrass plant response rating” value (bamyardgrass; [1]) was 0 and the “Barnyardgrass plant response rating” value (bamyardgrass; [9]) was 0. The “Barnyardgrass plant response rating” value (bamyardgrass; [10]) was 8, the “Barnyardgrass plant response rating” value (bamyardgrass; [11]) was 0 and the “Bedstraw plant response rating” value (bedstraw; [1]) was 2. For the same molecule, the “Bedstraw plant response rating” value (bedstraw; [2]) was 8, the “Plant response rating, Bedstraw” value (bedstraw; [3]) was 0 and the “Plant response rating, Bedstraw” value (bedstraw; [4]) was 0. For the same molecule, the “Plant response rating, Bedstraw” value (bedstraw; [5]) was 0, the “Bedstraw plant response rating” value (bedstraw; [6]) was 0 and the “Bedstraw plant response rating” value (bedstraw; [7]) was 3. For the same molecule, the “Bedstraw plant response rating” value (bedstraw; [8]) was 8, the “Corn plant response rating” value (corn; [1]) was 0 and the “Corn plant response rating” value (corn; [2]) was 0. For the same molecule, the “Plant response rating, Corn” value (corn; [3]) was 0, the “Plant response rating, Corn” value (corn; [4]) was 0 and the “Plant response rating, Corn” value (corn; [5]) was 0. The “Corn plant response rating” value (corn; [6]) was 0, the “Corn plant response rating” value (corn; [7]) was 0 and the “Corn plant response rating” value (corn; [8]) was 0. The “B. signalgrass plant response rating” value (surinam grass; [1]) was 0, the “B. signalgrass plant response rating” value (surinam grass; [2]) was 3 and the “Plant response rating, B. signalgrass” value (surinam grass; [3]) was 0. For the same molecule, the “Plant response rating, B. signalgrass” value (surinam grass; [4]) was 4, the “Plant response rating, B. signalgrass” value (surinam grass; [5]) was 4 and the “B. signalgrass plant response rating” value (surinam grass; [6]) was 6. For the same molecule, the “B. signalgrass plant response rating” value (surinam grass; [7]) was 3, the “B. signalgrass plant response rating” value (surinam grass; [8]) was 3 and the “S. Flatsedge plant response rating” value (smallflower flatsedge; [1]) was 0. For the same molecule, the “S. Flatsedge plant response rating” value (smallflower flatsedge; [9]) was 0, the “S. Flatsedge plant response rating” value (smallflower flatsedge; [11]) was 0 and the “Giant foxtail plant response rating” value (giant foxtail; [1]) was 0. The “Giant foxtail plant response rating” value (giant foxtail; [2]) was 3, the “Plant response rating, Giant foxtail” value (giant foxtail; [3]) was 6 and the “Plant response rating, Giant foxtail” value (giant foxtail; [4]) was 7. The “Plant response rating, Giant foxtail” value (giant foxtail; [5]) was 9, the “Giant foxtail plant response rating” value (giant foxtail; [6]) was 9 and the “Giant foxtail plant response rating” value (giant foxtail; [7]) was 2. The “Giant foxtail plant response rating” value (giant foxtail; [8]) was 8.
